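The compound was tested at five concentrations on cells cultured in 96-well plates, with a 48-hour exposure period. Abbreviation: GI50, concentration required for 50% inhibition of growth.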 Active and inactive are the calls of the source. Rule as the data show it: active = GI50 up to about 1.1 µM and inactive = higher.
Assays:
Test in all cases: inhibition of tumour cell growth, NCI panel, 48 h
IGROV-1 = test system: IGROV-1
U-251 = test system: U-251
OVCAR-4 = test system: OVCAR-4
NCI-H23 = test system: NCI-H23
SNB-19 = test system: SNB-19
MDA-MB-435 = test system: MDA-MB-435
SR = test system: SR
MOLT-4 = test system: MOLT-4
PC-3 = test system: PC-3
SN12C = test system: SN12C
SF-268 = test system: SF-268
MDA-N = test system: MDA-N
OVCAR-5 = test system: OVCAR-5
HOP-62 = test system: HOP-62
SK-MEL-2 = test system: SK-MEL-2
KM12 = test system: KM12
OVCAR-3 = test system: OVCAR-3
OVCAR-8 = test system: OVCAR-8
DU-145 = test system: DU-145
T47D = test system: T47D
RPMI-8226 = test system: RPMI-8226
HCT-15 = test system: HCT-15
NCI-H226 = test system: NCI-H226
Hs-578T = test system: Hs-578T
ACHN = test system: ACHN
RXF 393 = test system: RXF 393
HOP-92 = test system: HOP-92
SF-539 = test system: SF-539
SK-OV-3 = test system: SK-OV-3
TK-10 = test system: TK-10
NCI-H460 = test system: NCI-H460
MCF7 = test system: MCF7
Malme-3M = test system: Malme-3M
K562 = test system: K562
NCI-H522 = test system: NCI-H522
HL-60 = test system: HL-60
HCT-116 = test system: HCT-116
SNB-75 = test system: SNB-75
UACC-62 = test system: UACC-62
SF-295 = test system: SF-295
MDA-MB-231 = test system: MDA-MB-231
UO-31 = test system: UO-31
NCI/ADR-RES = test system: NCI/ADR-RES
BT-549 = test system: BT-549
EKVX = test system: EKVX
M14 = test system: M14
SK-MEL-5 = test system: SK-MEL-5
786-0 = test system: 786-0
A549 = test system: A549
HT-29 = test system: HT-29
CCRF-CEM = test system: CCRF-CEM
SK-MEL-28 = test system: SK-MEL-28
COLO 205 = test system: COLO 205
UACC-257 = test system: UACC-257
HCC 2998 = test system: HCC 2998
SW-620 = test system: SW-620
CAKI-1 = test system: CAKI-1
A498 = test system: A498
LOX IMVI = test system: LOX IMVI

C=CC(=C)CCC(Br)C(C)(C)Br (stereo unspecified)
GI50 (IGROV-1): 80.7 µM (inactive) | GI50 (U-251): > 100 µM (inactive) | GI50 (OVCAR-4): > 100 µM (inactive) | GI50 (NCI-H23): > 100 µM (inactive) | GI50 (SNB-19): > 100 µM (inactive) | GI50 (MDA-MB-435): > 100 µM (inactive) | GI50 (SR): > 100 µM (inactive) | GI50 (MOLT-4): 15.6 µM (inactive) | GI50 (PC-3): > 100 µM (inactive) | GI50 (SN12C): > 100 µM (inactive) | GI50 (SF-268): > 100 µM (inactive) | GI50 (MDA-N): > 100 µM (inactive) | GI50 (OVCAR-5): > 100 µM (inactive) | GI50 (HOP-62): > 100 µM (inactive) | GI50 (SK-MEL-2): > 100 µM (inactive) | GI50 (KM12): > 100 µM (inactive) | GI50 (OVCAR-3): > 100 µM (inactive) | GI50 (OVCAR-8): > 100 µM (inactive) | GI50 (DU-145): > 100 µM (inactive) | GI50 (T47D): 66.2 µM (inactive) | GI50 (RPMI-8226): 88.1 µM (inactive) | GI50 (HCT-15): > 100 µM | GI50 (NCI-H226): > 100 µM (inactive) | GI50 (Hs-578T): > 100 µM (inactive) | GI50 (ACHN): > 100 µM (inactive) | GI50 (RXF 393): > 100 µM (inactive) | GI50 (HOP-92): 91.2 µM (inactive) | GI50 (SF-539): > 100 µM (inactive) | GI50 (SK-OV-3): > 100 µM (inactive) | GI50 (TK-10): > 100 µM (inactive) | GI50 (NCI-H460): > 100 µM (inactive) | GI50 (MCF7): 35.1 µM (inactive) | GI50 (Malme-3M): 41.2 µM (inactive) | GI50 (K562): 40.3 µM (inactive) | GI50 (NCI-H522): 15.7 µM (inactive) | GI50 (HL-60): 17.1 µM (inactive) | GI50 (HCT-116): 54.3 µM (inactive) | GI50 (SNB-75): > 100 µM (inactive) | GI50 (UACC-62): > 100 µM (inactive) | GI50 (SF-295): > 100 µM (inactive) | GI50 (MDA-MB-231): 4.51 µM (inactive) | GI50 (UO-31): > 100 µM (inactive) | GI50 (NCI/ADR-RES): > 100 µM (inactive) | GI50 (BT-549): > 100 µM (inactive) | GI50 (EKVX): > 100 µM (inactive) | GI50 (M14): 75.9 µM (inactive) | GI50 (SK-MEL-5): > 100 µM (inactive) | GI50 (786-0): 99.1 µM (inactive) | GI50 (A549): > 100 µM (inactive) | GI50 (HT-29): > 100 µM (inactive) | GI50 (CCRF-CEM): 22.2 µM (inactive) | GI50 (SK-MEL-28): > 100 µM (inactive) | GI50 (COLO 205): 74 µM (inactive) | GI50 (UACC-257): > 100 µM (inactive) | GI50 (HCC 2998): > 100 µM (inactive) | GI50 (SW-620): 32.4 µM (inactive)

CC(C)(S)C(N)C(=O)O (stereo not drawn) [DL-PENICILLAMINE]
GI50 (IGROV-1): > 100 µM (inactive) | GI50 (U-251): > 100 µM (inactive) | GI50 (OVCAR-4): > 100 µM (inactive) | GI50 (NCI-H23): > 100 µM (inactive) | GI50 (SNB-19): > 100 µM (inactive) | GI50 (MDA-MB-435): > 100 µM (inactive) | GI50 (CAKI-1): > 100 µM (inactive) | GI50 (SR): > 100 µM (inactive) | GI50 (MOLT-4): > 100 µM (inactive) | GI50 (A498): > 100 µM (inactive) | GI50 (PC-3): > 100 µM (inactive) | GI50 (SN12C): > 100 µM (inactive) | GI50 (SF-268): > 100 µM (inactive) | GI50 (MDA-N): > 100 µM (inactive) | GI50 (OVCAR-5): > 100 µM (inactive) | GI50 (HOP-62): > 100 µM (inactive) | GI50 (SK-MEL-2): > 100 µM (inactive) | GI50 (KM12): > 100 µM (inactive) | GI50 (OVCAR-3): > 100 µM (inactive) | GI50 (OVCAR-8): > 100 µM (inactive) | GI50 (DU-145): > 100 µM (inactive) | GI50 (T47D): > 100 µM (inactive) | GI50 (RPMI-8226): > 100 µM (inactive) | GI50 (HCT-15): > 100 µM | GI50 (NCI-H226): > 100 µM (inactive) | GI50 (Hs-578T): > 100 µM (inactive) | GI50 (ACHN): > 100 µM (inactive) | GI50 (RXF 393): > 100 µM (inactive) | GI50 (HOP-92): > 100 µM (inactive) | GI50 (SF-539): > 100 µM (inactive) | GI50 (SK-OV-3): > 100 µM (inactive) | GI50 (TK-10): > 100 µM (inactive) | GI50 (NCI-H460): > 100 µM (inactive) | GI50 (MCF7): > 100 µM (inactive) | GI50 (Malme-3M): > 100 µM (inactive) | GI50 (K562): > 100 µM (inactive) | GI50 (NCI-H522): > 100 µM (inactive) | GI50 (HCT-116): > 100 µM (inactive) | GI50 (SNB-75): > 100 µM (inactive) | GI50 (UACC-62): > 100 µM (inactive) | GI50 (SF-295): > 100 µM (inactive) | GI50 (MDA-MB-231): > 100 µM (inactive) | GI50 (NCI/ADR-RES): > 100 µM (inactive) | GI50 (BT-549): > 100 µM (inactive) | GI50 (EKVX): > 100 µM (inactive) | GI50 (M14): > 100 µM (inactive) | GI50 (SK-MEL-5): > 100 µM (inactive) | GI50 (786-0): > 100 µM (inactive) | GI50 (A549): > 100 µM (inactive) | GI50 (HT-29): > 100 µM (inactive) | GI50 (SK-MEL-28): > 100 µM (inactive) | GI50 (LOX IMVI): > 100 µM (inactive) | GI50 (COLO 205): > 100 µM (inactive) | GI50 (UACC-257): > 100 µM (inactive) | GI50 (SW-620): > 100 µM (inactive)
